Here are results for 17 compounds from patent US20170355705A1 (GlaxoSmithKline Intellectual Property (No.2) Limited, priority 2014, published 2017).

In the test the target is T1, SIRT1 (Homo sapiens, UniProt Q96EB6).
T1 sequence (Q96EB6 1-747): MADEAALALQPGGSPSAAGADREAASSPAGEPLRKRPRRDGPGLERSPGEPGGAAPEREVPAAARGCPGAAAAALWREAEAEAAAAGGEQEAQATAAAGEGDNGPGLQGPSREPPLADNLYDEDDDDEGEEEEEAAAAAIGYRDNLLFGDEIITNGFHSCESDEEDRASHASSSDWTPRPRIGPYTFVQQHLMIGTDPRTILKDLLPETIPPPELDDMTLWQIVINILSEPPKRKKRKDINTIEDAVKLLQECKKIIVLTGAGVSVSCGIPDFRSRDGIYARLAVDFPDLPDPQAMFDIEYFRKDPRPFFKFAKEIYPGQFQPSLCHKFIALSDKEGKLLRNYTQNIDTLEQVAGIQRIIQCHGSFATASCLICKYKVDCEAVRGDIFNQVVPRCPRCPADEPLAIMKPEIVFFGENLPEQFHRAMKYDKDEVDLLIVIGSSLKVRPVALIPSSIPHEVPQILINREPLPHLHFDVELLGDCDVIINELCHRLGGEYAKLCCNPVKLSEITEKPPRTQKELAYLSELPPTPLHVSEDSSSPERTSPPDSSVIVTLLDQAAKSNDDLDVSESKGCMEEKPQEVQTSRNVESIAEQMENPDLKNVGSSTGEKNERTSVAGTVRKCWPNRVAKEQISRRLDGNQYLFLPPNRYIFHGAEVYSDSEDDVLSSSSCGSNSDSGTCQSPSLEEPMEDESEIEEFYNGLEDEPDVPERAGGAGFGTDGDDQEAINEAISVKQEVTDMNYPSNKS
Description: Trp mass spectrometry assay of SIRT1 activity (EC1.5, percent maximum activation). To be noted: Trp mass spectrometry assay; for TRP Activity (EC1.5): EC1.5 = concentration giving 150% activation of SIRT1; for TRP MAX RESP (percent maximum fold activation): percent maximum activation of SIRT1. It is filed as biochemical. A digest of the protocol:
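Mass spectrometry read-out (OAADPR formed, or deacetylated Trp peptide) after a 25 min NAD-dependent deacetylation by E. coli-expressed His-SIRT1, stopped with formic acid.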

On to `Cc1cc(-c2nc3c(cc2C#N)N2CC[C@@H](C2)N3C(=O)Nc2ccccn2)ccn1` [Example 92, (4S)-8-cyano-7-(2-methylpyridin-4-yl)-N-(pyridin-2-yl)-3,4-dihydro-1,4-methanopyrido[2,3-b][1,4]diazepine-5(2H)-carboxamide], for which the “TRP Activity (EC1.5)” value is recorded as “B (EC1.5 1-25 μM)” and the “TRP MAX RESP (percent maximum fold activation)” value is listed as “A (Fold activation ≧150%)”.

Regarding `Cc1cc(-c2nc3c(cc2Cl)N2CC[C@@H](C2)N3C(=O)Nc2cccc(OC[C@@H](O)CO)n2)ccn1` [Example 93, (4S)-8-chloro-N-(6-((S)-2,3-dihydroxypropoxy)pyridin-2-yl)-7-(2-methylpyridin-4-yl)-3,4-dihydro-1,4-methanopyrido[2,3-b][1,4]diazepine-5(2H)-carboxamide], the “TRP Activity (EC1.5)” value was “B (EC1.5 1-25 μM)” and the “TRP MAX RESP (percent maximum fold activation)” value is “A (Fold activation ≧150%)”.

Turning to `Cc1cc(-c2nc3c(cc2Cl)N2CC[C@@H](C2)N3C(=O)Nc2ccnc(OC[C@@H](O)CO)n2)ccn1` [Example 94, (4S)-8-chloro-N-(2-((S)-2,3-dihydroxypropoxy)pyrimidin-4-yl)-7-(2-methylpyridin-4-yl)-3,4-dihydro-1,4-methanopyrido[2,3-b][1,4]diazepine-5(2H)-carboxamide], the “TRP Activity (EC1.5)” value is on record as “C (EC1.5>25 μM)” and the “TRP MAX RESP (percent maximum fold activation)” value is on record as “B (Fold Activation <150%)”.

For the compound `Cc1cc(-c2nc3c(cc2Cl)N2CC[C@@H](C2)N3C(=O)Nc2cc(OC[C@H](O)CO)ncn2)ccn1` [Example 95, (4S)-8-chloro-N-(6-((R)-2,3-dihydroxypropoxy)pyrimidin-4-yl)-7-(2-methylpyridin-4-yl)-3,4-dihydro-1,4-methanopyrido[2,3-b][1,4]diazepine-5(2H)-carboxamide], the “TRP Activity (EC1.5)” value is “C (EC1.5>25 μM)” and the “TRP MAX RESP (percent maximum fold activation)” value was “B (Fold Activation <150%)”.

Regarding `Cc1cc(-c2nc3c(cc2Cl)N2CC[C@@H](C2)N3C(=O)Nc2ccnc(OC[C@H](O)CO)n2)ccn1` [Example 96, (4S)-8-chloro-N-(2-((R)-2,3-dihydroxypropoxy)pyrimidin-4-yl)-7-(2-methylpyridin-4-yl)-3,4-dihydro-1,4-methanopyrido[2,3-b][1,4]diazepine-5(2H)-carboxamide], the “TRP Activity (EC1.5)” value is given as “C (EC1.5>25 μM)” and the “TRP MAX RESP (percent maximum fold activation)” value is listed as “B (Fold Activation <150%)”.

With `Cc1cc(-c2nc3c(cc2Cl)N2CC[C@@H](C2)N3C(=O)Nc2cncc(OC[C@H](O)CO)n2)ccn1` [Example 97, (4S)-8-chloro-N-(6-((R)-2,3-dihydroxypropoxy)pyrazin-2-yl)-7-(2-methylpyridin-4-yl)-3,4-dihydro-1,4-methanopyrido[2,3-b][1,4]diazepine-5(2H)-carboxamide], the “TRP Activity (EC1.5)” value is “C (EC1.5>25 μM)” and the “TRP MAX RESP (percent maximum fold activation)” value was “B (Fold Activation <150%)”.

`Cc1cc(-c2nc3c(cc2Cl)N2CC[C@@H](C2)N3C(=O)Nc2cncc(OC[C@@H](O)CO)n2)ccn1` [Example 98, (4S)-8-chloro-N-(6-((S)-2,3-dihydroxypropoxy)pyrazin-2-yl)-7-(2-methylpyridin-4-yl)-3,4-dihydro-1,4-methanopyrido[2,3-b][1,4]diazepine-5(2H)-carboxamide]: the “TRP Activity (EC1.5)” value was “C (EC1.5>25 μM)” and the “TRP MAX RESP (percent maximum fold activation)” value was “B (Fold Activation <150%)”.

On to `COc1ncc(-c2nc3c(cc2Cl)N2CC[C@@H](C2)N3C(=O)Nc2ccnc(OC[C@@H](O)CO)c2)cc1C(F)(F)F` [Example 99, (4S)-8-chloro-N-(2-((S)-2,3-dihydroxypropoxy)pyridin-4-yl)-7-(6-methoxy-5-(trifluoromethyl)pyridin-3-yl)-3,4-dihydro-1,4-methanopyrido[2,3-b][1,4]diazepine-5(2H)-carboxamide], for which the “TRP Activity (EC1.5)” value is “B (EC1.5 1-25 μM)” and the “TRP MAX RESP (percent maximum fold activation)” value is reported as “A (Fold activation ≧150%)”.

As for `O=C(Nc1ccnc(OC[C@H](O)CO)c1)N1c2nc(-c3cnn(C4CC4)c3)c(Cl)cc2N2CC[C@H]1C2` [Example 100, (4S)-8-chloro-7-(1-cyclopropyl-1H-pyrazol-4-yl)-N-(2-((R)-2,3-dihydroxypropoxy)pyridin-4-yl)-3,4-dihydro-1,4-methanopyrido[2,3-b][1,4]diazepine-5(2H)-carboxamide], the “TRP Activity (EC1.5)” value is recorded as “B (EC1.5 1-25 μM)” and the “TRP MAX RESP (percent maximum fold activation)” value is “A (Fold activation ≧150%)”.

In the case of `Cc1cc2c(nc1-c1cccc(C(F)(F)F)c1)N(C(=O)Nc1ccnc(OC[C@@H](O)CO)c1)[C@H]1CCN2C1` [Example 101, (4S)-N-(2-((S)-2,3-dihydroxypropoxy)pyridin-4-yl)-8-methyl-7-(3-(trifluoromethyl)phenyl)-3,4-dihydro-1,4-methanopyrido[2,3-b][1,4]diazepine-5(2H)-carboxamide], the “TRP Activity (EC1.5)” value is recorded as “A (EC1.5<1 μM)” and the “TRP MAX RESP (percent maximum fold activation)” value is recorded as “A (Fold activation ≧150%)”.

Take `O=C(Nc1ccnc(OC[C@@H](O)CO)c1)N1c2nc(-c3cnn(C4CC4)c3)c(Cl)cc2N2CC[C@H]1C2` [Example 102, (4S)-8-chloro-7-(1-cyclopropyl-1H-pyrazol-4-yl)-N-(2-((S)-2,3-dihydroxypropoxy)pyridin-4-yl)-3,4-dihydro-1,4-methanopyrido[2,3-b][1,4]diazepine-5(2H)-carboxamide]: the “TRP Activity (EC1.5)” value was “B (EC1.5 1-25 μM)” and the “TRP MAX RESP (percent maximum fold activation)” value was “A (Fold activation ≧150%)”.

As for `COc1ncc(C(F)(F)F)cc1-c1nc2c(cc1Cl)N1CC[C@@H](C1)N2C(=O)Nc1ccnc(OC[C@@H](O)CO)c1` [Example 103, (4S)-8-chloro-N-(2-((S)-2,3-dihydroxypropoxy)pyridin-4-yl)-7-(2-methoxy-5-(trifluoromethyl)pyridin-3-yl)-3,4-dihydro-1,4-methanopyrido[2,3-b][1,4]diazepine-5(2H)-carboxamide], the “TRP Activity (EC1.5)” value is on record as “B (EC1.5 1-25 μM)” and the “TRP MAX RESP (percent maximum fold activation)” value was “A (Fold activation ≧150%)”.

Regarding `N#Cc1cc2c(nc1-c1cccc(C(F)(F)F)c1)N(C(=O)Nc1ccnc(OC[C@@H](O)CO)c1)[C@H]1CCN2C1` [Example 104, (4S)-8-cyano-N-(2-((S)-2,3-dihydroxypropoxy)pyridin-4-yl)-7-(3-(trifluoromethyl)phenyl)-3,4-dihydro-1,4-methanopyrido[2,3-b][1,4]diazepine-5(2H)-carboxamide], the “TRP Activity (EC1.5)” value is “A (EC1.5<1 μM)” and the “TRP MAX RESP (percent maximum fold activation)” value is “A (Fold activation ≧150%)”.

With `Cn1cc(-c2nc3c(cc2Cl)N2CC[C@@H](C2)N3C(=O)Nc2ccnc(OC[C@@H](O)CO)c2)cn1` [Example 105, (4S)-8-chloro-N-(2-((S)-2,3-dihydroxypropoxy)pyridin-4-yl)-7-(1-methyl-1H-pyrazol-4-yl)-3,4-dihydro-1,4-methanopyrido[2,3-b][1,4]diazepine-5(2H)-carboxamide], the “TRP Activity (EC1.5)” value is given as “B (EC1.5 1-25 μM)” and the “TRP MAX RESP (percent maximum fold activation)” value is recorded as “A (Fold activation ≧150%)”.

As for `Cn1cc(-c2nc3c(cc2Cl)N2CC[C@@H](C2)N3C(=O)Nc2ccnc(OC[C@H](O)CO)c2)cn1` [Example 106, (4S)-8-chloro-N-(2-((R)-2,3-dihydroxypropoxy)pyridin-4-yl)-7-(1-methyl-1H-pyrazol-4-yl)-3,4-dihydro-1,4-methanopyrido[2,3-b][1,4]diazepine-5(2H)-carboxamide], the “TRP Activity (EC1.5)” value was “B (EC1.5 1-25 μM)” and the “TRP MAX RESP (percent maximum fold activation)” value was “A (Fold activation ≧150%)”.

As for `O=C(Nc1ccnc(OC[C@@H](O)CO)c1)N1c2nc(-c3cccc(C(F)F)c3)c(Cl)cc2N2CC[C@H]1C2` [Example 107, (4S)-8-chloro-7-(3-(difluoromethyl)phenyl)-N-(2-((S)-2,3-dihydroxypropoxy)pyridin-4-yl)-3,4-dihydro-1,4-methanopyrido[2,3-b][1,4]diazepine-5(2H)-carboxamide], the “TRP Activity (EC1.5)” value is “A (EC1.5<1 μM)” and the “TRP MAX RESP (percent maximum fold activation)” value was “A (Fold activation ≧150%)”.

Take `O=C(Nc1ccnc(OC[C@@H](O)CO)c1)N1c2nc(-c3ccnc(C(F)(F)F)c3)c(Cl)cc2N2CC[C@H]1C2` [Example 108, (4S)-8-chloro-N-(2-((S)-2,3-dihydroxypropoxy)pyridin-4-yl)-7-(2-(trifluoromethyl)pyridin-4-yl)-3,4-dihydro-1,4-methanopyrido[2,3-b][1,4]diazepine-5(2H)-carboxamide]: the “TRP Activity (EC1.5)” value is “B (EC1.5 1-25 μM)” and the “TRP MAX RESP (percent maximum fold activation)” value is “A (Fold activation ≧150%)”.
